Test results reported in PMC6479946 (Molecules, 2019).

Columns and labels:
[1] = oral administration of 40.0 mg/kg HAR; cited from earlier work
[2] = in vivo; conditions: rat plasma, n = 8, mean ± SD; for AUC(0-t) / AUC(0-inf) / CL/F / Cmax / k el / MRT / Tmax: male, Sprague-Dawley, rat, in vivo, po; for AUC(0-t): AUC(0-t) of HAR; for AUC(0-inf): AUC(0-∞) of HAR; for CL/F: CL/F of HAR; for Cmax: Cmax of HAR; for k el: Ke of HAR; for MRT: MRT of HAR; for Tmax: Tmax of HAR
Procedure: The analytes were separated on an ACQUITY UPLC BEH C18 column (2.1 mm × 50 mm, 1.7 μm, Waters, Milford, USA). […] The flow rate was 0.3 mL/min. The column and sample-tray temperature were kept at 40 °C and 4 °C, respectively. The injection volume was 5.0 μL using a partial loop with needle over fill mode.
The compound dependent parameters used for analysis were summarized in Supplementary materials Table S1.
A rapid and convenient precipitation method was used to prepare the plasma samples. A 100 μL aliquot of plasma sample was spiked with 100 μL of IS solution and 300 μL of methanol in a 1.5 mL centrifuge tube; subsequently, the mixtures were vortex-mixed for 30.0 s and then centrifuged at 1.5 × 10^4× g for 10 min at 4 °C. A 100 μL aliquot of supernatant was combined with 25.0 μL of 0.1% formic acid water in a clean centrifuge tube and then vortex-mixed for 30 s. A 5.0 μL aliquot of mixture was injected into the UPLC-MS/MS system for analysis.
Fifty-six pathogen-free male adult rats were randomly divided into seven groups with eight rats in each group for pharmacokinetic study. […] One group was intragastrically administered with MEM hydrochloride 5.0 mg/kg dissolved in ultrapure water, namely, MEM group. […] The blood samples were immediately centrifuged at 4.0 × 10^3× g at […] for 10 min, and 100 μL of the supernatant plasma was transferred into another new 1.5 mL centrifuge tube and stored at −20 °C until UPLC-MS/MS analysis.
All standard curves and quantitative data were processed by Agilent Mass Hunter Quantitative Analysis Workstation Software. […] All the pharmacokinetic parameters were processed using the non-compartmental pharmacokinetics data analysis software program PK solutions 2.0^TM (Summit Research Services, USA). […] The AUC(0-t) was obtained by the linear/logarithmic trapezoidal rule, and the area under the plasma concentration versus time curve from zero to infinity (AUC(0-∞)) was calculated by means of the trapezoidal rule with extrapolation to infinity with a terminal elimination rate constant. The Pearson correlation coefficient analysis was processed by IBM SPSS Statistics Version 21. A statistical analysis was performed using analysis of variance with α = 0.05 as the minimal level of significance.

[3] = 20 mg/kg, oral HAR 20.0 mg/kg + MEM 5.0 mg/kg (HAR-L + MEM)
[4] = 20 mg/kg, oral HAR 20.0 mg/kg alone (HAR-L)
[5] = 40 mg/kg, oral HAR 40.0 mg/kg + MEM 5.0 mg/kg (HAR-M + MEM)
[6] = 40 mg/kg, oral HAR 40.0 mg/kg alone (HAR-M)
[7] = 80 mg/kg, oral HAR 80.0 mg/kg + MEM 5.0 mg/kg (HAR-H + MEM)
[8] = 80 mg/kg, oral HAR 80.0 mg/kg alone (HAR-H)
[9] = oral HAR 20.0 mg/kg + MEM 5.0 mg/kg (HAR-L + MEM)
[10] = oral HAR 20.0 mg/kg alone (HAR-L)
[11] = oral HAR 40.0 mg/kg + MEM 5.0 mg/kg (HAR-M + MEM)
[12] = oral HAR 40.0 mg/kg alone (HAR-M)
[13] = oral HAR 80.0 mg/kg + MEM 5.0 mg/kg (HAR-H + MEM)
[14] = oral HAR 80.0 mg/kg alone (HAR-H)

COc1ccc2c(c1)[nH]c1c(C)nccc12 [HAR, 7-methoxy-1-methyl-9H-pyrido [3,4-β] indole]
maximum peak concentration (Cmax) of HAR [1]: 67.1 ± 34.3 ng/mL
AUC(0-t) [2, 3]: 141 ± 56.7 ng·h/mL
AUC(0-t) [2, 4]: 74.9 ± 36.3 ng·h/mL
AUC(0-inf) [2, 3]: 158 ± 65.4 ng·h/mL
AUC(0-inf) [2, 4]: 83.1 ± 38.9 ng·h/mL
CL/F [2, 3]: 158 L/h/kg
CL/F [2, 4]: 323 L/h/kg
Cmax [2, 3]: 64.5 ± 14.7 ng/mL
Cmax [2, 4]: 31.4 ± 16.3 ng/mL
k el [2, 3]: 8.67e-05 s⁻¹
k el [2, 4]: 0.000119 s⁻¹
MRT [2, 3]: 4.02 ± 1.96 h
MRT [2, 4]: 3.36 ± 1.38 h
Tmax [2, 3]: 0.5 ± 0.267 h
Tmax [2, 4]: 0.5 ± 0.267 h
AUC(0-t) [2, 5]: 139 ± 40.6 ng·h/mL
AUC(0-t) [2, 6]: 100 ± 44.8 ng·h/mL
AUC(0-inf) [2, 5]: 153 ± 43.1 ng·h/mL
AUC(0-inf) [2, 6]: 109 ± 47.9 ng·h/mL
CL/F [2, 5]: 278 L/h/kg
CL/F [2, 6]: 431 L/h/kg
Cmax [2, 5]: 86.6 ± 31 ng/mL
Cmax [2, 6]: 77 ± 53.8 ng/mL
k el [2, 5]: 4.83e-05 s⁻¹
k el [2, 6]: 0.000132 s⁻¹
MRT [2, 5]: 3.28 ± 1.02 h
MRT [2, 6]: 2.83 ± 1.41 h
Tmax [2, 5]: 0.24 ± 0.129 h
Tmax [2, 6]: 0.365 ± 0.271 h
AUC(0-t) [2, 7]: 1060 ± 540 ng·h/mL
AUC(0-t) [2, 8]: 502 ± 180 ng·h/mL
AUC(0-inf) [2, 7]: 1110 ± 508 ng·h/mL
AUC(0-inf) [2, 8]: 587 ± 275 ng·h/mL
CL/F [2, 7]: 91.2 L/h/kg
CL/F [2, 8]: 163 L/h/kg
Cmax [2, 7]: 755 ± 298 ng/mL
Cmax [2, 8]: 368 ± 253 ng/mL
k el [2, 7]: 0.000127 s⁻¹
k el [2, 8]: 0.000116 s⁻¹
MRT [2, 7]: 2.88 ± 1.93 h
MRT [2, 8]: 3.17 ± 1.48 h
Tmax [2, 7]: 0.448 ± 0.63 h
Tmax [2, 8]: 0.344 ± 0.186 h
Ka of HAR [2, 9]: 1.91 ± 2.46 h⁻¹
T1/2a of HAR [2, 9]: 1.57 ± 2.28 h
T1/2e of HAR [2, 9]: 2.89 ± 2.26 h
T1/2d of HAR [2, 9]: 1.22 ± 1.24 h
Vd of HAR [2, 9]: 59.0 ± 35.1 (L/kg) × 10
Ka of HAR [2, 10]: 1.66 ± 2.27 h⁻¹
T1/2a of HAR [2, 10]: 1.29 ± 1.25 h
T1/2e of HAR [2, 10]: 2.05 ± 1.11 h
T1/2d of HAR [2, 10]: 2.14 ± 2.57 h
Vd of HAR [2, 10]: 80.3 ± 39.2 (L/kg) × 10
Ka of HAR [2, 11]: 1.52 ± 1.08 h⁻¹
T1/2a of HAR [2, 11]: 1.18 ± 1.22 h
T1/2e of HAR [2, 11]: 4.33 ± 1.31 h
T1/2d of HAR [2, 11]: 2.33 ± 2.71 h
Vd of HAR [2, 11]: 172 ± 61.6 (L/kg) × 10
Ka of HAR [2, 12]: 2.69 ± 2.60 h⁻¹
T1/2a of HAR [2, 12]: 0.529 ± 0.478 h
T1/2e of HAR [2, 12]: 2.28 ± 1.86 h
T1/2d of HAR [2, 12]: 0.960 ± 0.734 h
Vd of HAR [2, 12]: 136 ± 105 (L/kg) × 10
Ka of HAR [2, 13]: 2.93 ± 2.06 h⁻¹
T1/2a of HAR [2, 13]: 0.357 ± 0.228 h
T1/2e of HAR [2, 13]: 3.21 ± 3.17 h
T1/2d of HAR [2, 13]: 1.40 ± 1.74 h
Vd of HAR [2, 13]: 60.3 ± 89.6 (L/kg) × 10
Ka of HAR [2, 14]: 2.80 ± 2.74 h⁻¹
T1/2a of HAR [2, 14]: 0.605 ± 0.546 h
T1/2e of HAR [2, 14]: 2.35 ± 1.44 h
T1/2d of HAR [2, 14]: 1.36 ± 1.37 h
Vd of HAR [2, 14]: 51.4 ± 33.1 (L/kg) × 10
